Measurements from article PMC8541628, “Development of Novel Quinoline-Based Sulfonamides as Selective Cancer-Associated Carbonic Anhydrase Isoform IX Inhibitors” (International Journal of Molecular Sciences, 2021).

Assays:
[1] = system: Bcl-2; assay: Bcl-2 expression level (ELISA) in MDA-MB-231 cells; assay type: cell-based, human; settings: for Bcl-2 / Bcl-2, folds of control: 24 h incubation; for decrease in the expression level of Bcl-2 protein: in comparison to the untreated control
Experimental: The levels of two members of Bcl-2 family proteins, the anti-apoptotic Bcl-2 protein, and the counteracting pro-apoptotic Bax protein, as well as the level of active caspase-3 (a key executioner protease) in MDA-MB-231 and MCF-7 cells have been assessed after incubation with QBS 11c and 13b for 24 h.
All adopted procedures for the conducted in vitro biological assays were performed as described earlier; CA (stopped-flow), cytotoxicity (MTT [37, 38]), and assessment of apoptotic markers assays, as well as induction of hypoxia with cobalt chloride, and were mentioned in the Supporting Materials. […]
3. Assessment of Apo ptotic Markers Levels
The levels of the pro-apoptotic markers (Bax and active caspase-3) as well as the anti-apoptotic marker Bcl-2 were determined using ELISA kits; Human Bax ELISA Kit (EIA-4487) DRG® Instruments, Bcl-2 ELISA Kit (99–0042), Zymed® Laboratories, Invitrogen Immunodetection, and Human Caspase-3 (active) ELISA Kit (KHO1091) Invitrogen®, per the manufacturer’s instructions. Breast cancer MDA-MB-231 and MCF-7 cells were cultured as a monolayer in T-25 flasks and were seeded to attain 30% confluency prior to treatment. Cells were then treated separately with MBFS 11b at its IC50 concentration for 24 h. At the end of treatment, cells were collected via trypsinization and centrifuged at 10,000 rpm. The pellet was then rinsed with PBS and lysed in RIPA lysis buffer at 4 °C for 45 min, then centrifuged at 14,000 rpm for 20 min to remove the cellular debris. Lysates were then collected and stored at −80 °C for later protein determination using Pierce BCA Protein Assay Kit according to manufacturer’s recommendations.
The cell lysate was diluted 10 times, and 100 μL ([…]) was added to the wells of […] separate microtiter plates for the three ELISA kits th at were pre-coated with primary antibodies specific to Bax, Bcl-2, and caspase-3 proteins, respectively. A secondary biotin-linked antibody specific to the protein captured by the primary antibody was further added to bind the […]
captured protein, forming a “sandwich” of specific antibodies around the desired protein in the cell lysate. The streptavidin-HRP complex was then used to bind the biotin-linked secondary antibody through its streptavidin portion. The HRP domain reacted with the added TMB substrate to form a colored product that measured at 450 nm by a plate reader ChroMate-4300 after the reaction was terminated via the addition of stop solution. […]
The ligand 3D structures were prepared by Maestro and their ionization states was checked with Epik at pH 7.4±0.5 then they were subjected to energy minimization using OPLS3 force field in Macromodel with a maximum number of 2500 conjugate gradient iteration and a convergence of 0.05 kcal mol−1 A−1. Glide with default parameters was u sed to generate th e docking g rid setting the center of the co-crystallized lig and s as grid center. Docking was performed using the standard precision mode (SP) implemented in Glide and the top 5 poses for each ligand were returned. Prime MMGBSA was used for the refinement of the best pose for each ligand, using VSGB solvation model setting the receptor flexible within 3 A around the ligand.

| SMILES | Bcl-2 [1] | Bcl-2, folds of control [1] | decrease in the expression level of Bcl-2 protein [1] [%] | melting point [°C] |
| --- | --- | --- | --- | --- |
| NS(=O)(=O)c1cccc(Nc2ccnc3ccc(Cl)cc23)c1 [11c, 3-((6-chloroquinolin-4-yl)amino)benzenesulfonamide] | 6.45 ± 0.17 Pg/mg of Total Protein | 0.45 folds of control | 55 | – |
| COc1ccc2nccc(Nc3ccc(S(N)(=O)=O)cc3)c2c1 [13b, 4-((6-methoxyquinolin-4-yl)amino)benzenesulfonamide] | 5.304 ± 0.13 Pg/mg of Total Protein | 0.37 folds of control | 63 | 250 to 252 |
